From PMC6213599 (Marine Drugs, 2018)
≈ marks a conversion by molar mass, not a printed value. Read-outs that look alike come from different tables or passages of the source. Non-standard residues stand in square brackets, D forms with d. Residues, ends and D or L forms follow the SMILES beside them. Hyp = O=C(O)[C@@H]1C[C@@H](O)CN1

Assays:
[1] = test system: NA; settings: cited from earlier work
Description: (§1) To determine the mode of action of the NA-inhibitory peptide, a Lineweaver–Burk kinetic model was used to explore the relationship between the reaction rate and the substrate concentration.

[2] = test system: NA; settings: no reference given; cited from earlier work
Description: as §1

[3] = test system: influenza virus A/Puerto Rico/8/1934 (H1N1) in MDCK cells
[4] = target: T1, Influenza virus H1N1 neuraminidase (NA) (Influenza A virus, UniProt P03468); test: NA inhibition mode, Lineweaver–Burk kinetics; format: biochemical; settings: Lineweaver–Burk plot
Description: The mode of NA inhibition was determined according to the previous method with slight modifications. Various concentrations of MUNANA (1.25, 2.5, 5, 10 and 20 μM) were incubated with NA in the absence or presence (0–2.5 mg/mL) of the peptide P at 37 °C. The inhibition kinetics of NA in the presence of peptide P was determined based on the Lineweaver–Burk plot. The inhibitor constant Ki was calculated by plotting 1/Vmax versus the concentrations of peptide P.

[5] = test system: influenza virus A/Puerto Rico/8/1934 (H1N1) in MDCK cells; remark: listed apart in the source
[6] = test system: MDCK cells; test: Cytotoxicity test by MTT assay; format: cell-based, canine; settings: 48 h
Description: The MTT assay was used to determine the effect of the peptide on the viability of MDCK cells. The 96-well plates were used to culture the MDCK cells. After adding 10 μL of PBS containing MTT (0.5 mg/mL) into each well, the solution was incubated at 37 °C for 4 h. After removing the supernatant, 200 μL of DMSO was added into each well. The optical density (OD) for each well was determined at 570 nm. The IC50 was calculated as the concentration of the sample at which the number of viable cells was decreased to 50% of that in the cell control.

[7] = test system: pepsin, chymotrypsin, trypsin; test: Simulated in vitro gastrointestinal digestion, NA inhibition read-out; format: in vitro ADME; settings: 10 mg/mL, pepsin pH 2.0, 37 °C, 2 h, then chymotrypsin pH 7.5, 37 °C, 1 h, three replicates
Description: Simulated digestion assay was performed according to the previous method with slight modifications. The NA-inhibitory peptide was dissolved in deionized water to prepare 10 mg/mL solution. The pH was adjusted to 2.0 with 1 mol/L HCl and then pepsin (2.86% of the substrate, dry basis) was added. Digestion was performed at 37 °C for 2 h, followed by boiling for 10 min to stop the enzyme activation. Subsequently, the pH was adjusted to 7.5 with 0.2 mol/L NaOH. After adding chymotrypsin (4.00% of substrate, dry basis), the reaction was carried out at 37 °C for 1 h. The sample was submerged in a 95 °C water bath for 10 min to terminate the enzymatic digestion and cooled on ice to room temperature. Then, trypsin (4.00% of substrate, dry basis) was added, and the above steps were repeated. Afterwards, the digested mixtures were centrifuged at 10,000× g for 10 min to obtain the digestive juices. The NA inhibition assay in digestive juices was detected as described above.

[8] = target: T1, Influenza virus H1N1 neuraminidase (NA); format: biochemical; settings: relative to hydrolysates (<5000 Da), from the IC50 values
[9] = test system: influenza virus H1N1 (HA titer, chicken red blood cells); parameters: species or system influenza A H1N1 virus
[10] = test system: ACE; settings: cited from earlier work
[11] = influenza virus A/Puerto Rico/8/1934 in MDCK cells, 1 h, 250 μg/mL

T1 sequence (P03468 whole entry, looked up): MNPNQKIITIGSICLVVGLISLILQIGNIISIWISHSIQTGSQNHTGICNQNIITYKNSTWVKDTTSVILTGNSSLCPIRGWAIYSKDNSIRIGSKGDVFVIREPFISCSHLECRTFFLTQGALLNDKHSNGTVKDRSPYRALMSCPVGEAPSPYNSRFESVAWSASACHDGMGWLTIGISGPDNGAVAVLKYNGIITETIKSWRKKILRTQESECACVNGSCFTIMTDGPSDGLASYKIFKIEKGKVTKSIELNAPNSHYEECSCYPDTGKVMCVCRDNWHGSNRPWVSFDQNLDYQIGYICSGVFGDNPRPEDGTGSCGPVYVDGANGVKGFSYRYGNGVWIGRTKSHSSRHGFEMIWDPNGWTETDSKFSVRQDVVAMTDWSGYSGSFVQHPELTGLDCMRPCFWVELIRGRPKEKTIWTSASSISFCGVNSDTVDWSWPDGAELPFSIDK

## 2-hydroxy-3-methyl-3-butenyl alkyl [HMB]
[1]
  Mode of NA inhibition: non-competitive
[1]; read-out: IC50 for NA
  IC50: 12.3 µM
[1]; read-out: Ki for NA
  Ki: 14 ± 1.5 µM

## CCOC(=O)C1=C[C@@H](OC(CC)CC)[C@H](NC(C)=O)[C@@H](N)C1 [oseltamivir]
[2]
  Mode of NA inhibition: competitive

## CC(C)C[C@H](NC(=O)CNC(=O)[C@H](CCC(N)=O)NC(=O)[C@@H]1CCCN1C(=O)CNC(=O)[C@@H]1C[C@@H](O)CN1C(=O)[C@@H](NC(=O)CNC(=O)[C@@H]1C[C@@H](O)CN1C(=O)[C@@H]1CCCN1C(=O)CNC(=O)[C@H](C)NC(=O)[C@@H](NC(=O)CNC(=O)[C@H](C)NC(=O)[C@H](CCC(=O)O)NC(=O)CNC(=O)[C@H](CO)NC(=O)[C@@H]1CCCN1C(=O)CNC(=O)[C@H](CCCCN)NC(=O)[C@H](CCC(=O)O)NC(=O)CNC(=O)[C@@H]1C[C@@H](O)CN1)[C@@H](C)O)[C@@H](C)O)C(=O)O [peptide P] (H-[Hyp]GEKGPSGEAGTAGP[Hyp]GT[Hyp]GPQGL-OH; N-terminus and C-terminus assumed)
[3]
  Inhibition rate, added after the infection (after-adsorption): approximately 31.5%
[3]; [11]
  Inhibition ratio, during viral adsorption: 58%
  Inhibition ratio, pretreatment (added before viral adsorption): 73%
[4]
  Mode of NA inhibition: competitive
[5]
  Effect on cytopathic effect (CPE): significantly reduced the cytopathic effect
[5]; influenza virus A/Puerto Rico/8/1934 in MDCK cells, 48 h
  EC50 against H1N1: 471 ± 12 µg/mL (≈ 218 µM)
[5]; influenza virus A/Puerto Rico/8/1934 in MDCK cells, 48 h, 250 μg/mL
  Inhibition of H1N1: 42%
[6]; concentration of 250 μg/mL or less (p > 0.05)
  Cytotoxicity in MDCK cells: no significant cytotoxicity
[6]; concentrations over 250 μg/mL (p < 0.05)
  Viability of MDCK cells: significantly reduced the viability
[7]
  NA-inhibitory activity after simulated in vitro gastrointestinal digestion: significantly decreased
[7]; listed as NA-inhibitory peptide
  NA-inhibitory activity after simulated in vitro gastrointestinal digestion: almost inactivated
[8]
  Purification Fold: 7.19
[9]
  HA titer of the virus: significantly reduce the virus titer

## NC(=O)c1ncn([C@@H]2O[C@H](CO)[C@@H](O)[C@H]2O)n1 [ribavirin, Ribavirin, reference compound]
[3]; positive control in the time-of-addition experiment
  Inhibition ratio, positive control: 75%

## Trp-Leu
[10]
  ACE inhibitory activity after simulated digestion: completely preserved
